Patent publication US4323550A, “Halogenohydrates of N,N-disubstituted derivatives of piperazine having anticariogenic properties” (priority 1976, dated 1982)

Tests used:
[1] = pH of the difluorohydrate solution; type: physicochemical; conditions: solution titering 1.23% fluorine
Description: The radioactive solutions are obtained by dissolving 69 mg of the difluorohydrate and 81.3 mg of NaF, respectively, in 1 and 3 ml of fluorine 18 solution without entrainer. Thus solutions titering 1.23% fluorine are obtained.
As the difluorohydrate solution is already at pH=3.5, it is sufficient to acidify the NaF solution by addition of about 0.2 ml hydrochloric acid 6 M, to 3 ml of the radioactive solution.

Hygroscopicity = type: physicochemical; conditions: crystals
mice = assay: Acute oral toxicity in mice; type: in vivo
Description: By way of example there are described below the comparative tests made on difluorohydrate of N,N'-di(hydroxyethyl) piperazine and on fluorohydrate of hexadecylamine or "ELMEX 242".
The acute toxidity was studies in rats and in mice.
The animals came from a homogeneous breed. The mice weighed between 19 and 21 g and the rats weighed from 120 to 140 g. The mice were grouped in lots of 10 and the rats in lots of 8.
The administrations took place orally at a volume of 0.5 ml per 20 g of mouse and 1 ml per 100 g of rat. The LD50 was determined by the method of Lichfield and Wilcoxon.
As regards the difluorohydrate of N,N'-di(hydroxyethyl) piperazine, the administered solution was prepared by diluting the mother solution to 65.4%, the dilutions being made after having weighed this solution. The administered dose is expressed by weight, taking account of the indicated strength of this solution.
For the solid "ELMEX 242" an aqueous suspension was prepared with the aid of solubilizing agents (e.g. Tween-polyoxyethylene sorbitan monolaurate). A very thick suspension is then obtained which tends to foam heavily, is difficult to get into the esophageal sound, and the determination of its volume is rendered difficult by the foam.
The results obtained with the "ELMEX" are therefore rather approximate.

Q: With `OCCN1CCN(CCO)CC1` [DIFLUOROHYDRATE OF N,N'-DI(HYDROXY-ETHYL) PIPERAZINE] as the compound, how does the “pH of the solution” value [1] read?
A: Its value is 3.5.

Q: And the hygroscopicity (Hygroscopicity)?
A: Its hygroscopicity is “very hygroscopic”.

Q: And the hygroscopicity (Hygroscopicity; listed as difluorohydrate)?
A: Its hygroscopicity is “particularly hygroscopic”.

Q: What about the “toxicity compared with ELMEX 242” value (mice; conclusion from mouse and rat, solution versus suspension) of the same compound?
A: The value was “clearly more toxic than "ELMEX 242"”.

Q: And the “course: death and recovery” value (mice; mouse)?
A: The value was “Death occurs after one hour at the highest doses”.

Q: And the symptoms (mice; mouse)?
A: Its symptoms is “At higher doses the mice are totally immobile. They show light trembling, but over the entire body, also diarrhea”.

Q: What about the Deaths (mice; mouse, 200 mg/kg, D + 1, 10 per lot) of the same compound?
A: Its Deaths is 0.

Q: What about the Deaths (mice; mouse, 200 mg/kg, D + 2, 10 per lot) of the same compound?
A: The Deaths was 0.

Q: And the Deaths (mice; mouse, 200 mg/kg, D + 5, 10 per lot)?
A: Its Deaths is 0.

Q: And the Deaths (mice; mouse, 200 mg/kg, D + 10, 10 per lot)?
A: Its Deaths is 0.

Q: What about the Deaths (mice; mouse, 300 mg/kg, D + 1, 10 per lot) of the same compound?
A: The Deaths was 0.

Q: What about the Deaths (mice; mouse, 300 mg/kg, D + 2, 10 per lot) of the same compound?
A: Its Deaths is 0.

Q: And the Deaths (mice; mouse, 300 mg/kg, D + 5, 10 per lot)?
A: Its Deaths is 0.

Q: And the Deaths (mice; mouse, 300 mg/kg, D + 10, 10 per lot)?
A: The Deaths was 0.

Q: And the Deaths (mice; mouse, 400 mg/kg, D + 1, 10 per lot)?
A: Its Deaths is 2.

Q: And the Deaths (mice; mouse, 400 mg/kg, D + 2, 10 per lot)?
A: The Deaths was 3.

Q: And the Deaths (mice; mouse, 400 mg/kg, D + 5, 10 per lot)?
A: The Deaths was 3.

Q: What about the Deaths (mice; mouse, 400 mg/kg, D + 10, 10 per lot) of the same compound?
A: The Deaths was 3.

Q: And the Deaths (mice; mouse, 500 mg/kg, D + 1, 10 per lot)?
A: The Deaths was 3.

Q: What about the Deaths (mice; mouse, 500 mg/kg, D + 2, 10 per lot) of the same compound?
A: The Deaths was 5.

Q: And the Deaths (mice; mouse, 500 mg/kg, D + 5, 10 per lot)?
A: Its Deaths is 5.

Q: And the Deaths (mice; mouse, 500 mg/kg, D + 10, 10 per lot)?
A: Its Deaths is 5.

Q: And the Deaths (mice; mouse, 600 mg/kg, D + 1, 10 per lot)?
A: Its Deaths is 4.

Q: And the Deaths (mice; mouse, 600 mg/kg, D + 2, 10 per lot)?
A: Its Deaths is 7.

Q: And the Deaths (mice; mouse, 600 mg/kg, D + 5, 10 per lot)?
A: The Deaths was 8.

Q: What about the Deaths (mice; mouse, 600 mg/kg, D + 10, 10 per lot) of the same compound?
A: Its Deaths is 8.

Q: What about the Deaths (mice; mouse, 700 mg/kg, D + 1, 10 per lot) of the same compound?
A: Its Deaths is 9.

Q: And the Deaths (mice; mouse, 700 mg/kg, D + 2, 10 per lot)?
A: The Deaths was 10.

Q: What about the Deaths (mice; mouse, 700 mg/kg, D + 5, 10 per lot) of the same compound?
A: The Deaths was 10.

Q: What about the Deaths (mice; mouse, 700 mg/kg, D + 10, 10 per lot) of the same compound?
A: The Deaths was 10.

Q: What about the Deaths (mice; mouse, 800 mg/kg, D + 1, 10 per lot) of the same compound?
A: The Deaths was 7.

Q: What about the Deaths (mice; mouse, 800 mg/kg, D + 2, 10 per lot) of the same compound?
A: Its Deaths is 8.

Q: And the Deaths (mice; mouse, 800 mg/kg, D + 5, 10 per lot)?
A: Its Deaths is 9.

Q: And the Deaths (mice; mouse, 800 mg/kg, D + 10, 10 per lot)?
A: Its Deaths is 9.

Q: And the Deaths (mice; mouse, 1000 mg/kg, D + 1, 10 per lot)?
A: The Deaths was 10.

Q: What about the Deaths (mice; mouse, 1000 mg/kg, D + 2, 10 per lot) of the same compound?
A: Its Deaths is 10.

Q: What about the Deaths (mice; mouse, 1000 mg/kg, D + 5, 10 per lot) of the same compound?
A: The Deaths was 10.

Q: What about the Deaths (mice; mouse, 1000 mg/kg, D + 10, 10 per lot) of the same compound?
A: The Deaths was 10.

Q: What about the “persistence of the ill state” value (mice; mouse, doses above 400 mg/kg) of the same compound?
A: The value was “at least 24 hours”.

Q: What about the “time to onset of coma” value (mice; mouse, doses above 400 mg/kg) of the same compound?
A: The value was “about 45 minutes”.
